In the supplement of paper PMC10307832:

Columns and labels:
Assay in all cases: relative viability (nuclei count vs DMSO), 5 days (fraction); higher = more cells survive
VX-11e + Palbociclib = compound: CC1=CN=C(N=C1C2=CNC(=C2)C(=O)N[C@H](CO)C3=CC(=CC=C3)Cl)NC4=C(C=C(C=C4)F)Cl [VX-11e] + CC(=O)c1c(C)c2cnc(Nc3ccc(N4CCNCC4)cn3)nc2n(C2CCCC2)c1=O [Palbociclib] (partner 0.5 µM)
In short: (§1)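 Relative viability equals treated-well nuclei counts divided by vehicle-well nuclei counts. Counts came from 4× images of lung cancer cell lines grown in 1536-well plates for 5 days after pin-tool dosing on the day after seeding. Dosing used one drug alone or a fixed anchor-drug dose plus five library-drug doses (not always all listed) in √10 steps, and values are medians of duplicate plates.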

VX-11e + Foretinib = compound: CC1=CN=C(N=C1C2=CNC(=C2)C(=O)N[C@H](CO)C3=CC(=CC=C3)Cl)NC4=C(C=C(C=C4)F)Cl [VX-11e] + COc1cc2c(Oc3ccc(NC(=O)C4(C(=O)Nc5ccc(F)cc5)CC4)cc3F)ccnc2cc1OCCCN1CCOCC1 [Foretinib] (partner 0.25 µM)
In short: as §1

VX-11e + OSI-027 = compound: CC1=CN=C(N=C1C2=CNC(=C2)C(=O)N[C@H](CO)C3=CC(=CC=C3)Cl)NC4=C(C=C(C=C4)F)Cl [VX-11e] + COc1cccc2cc(-c3nc([C@H]4CC[C@H](C(=O)O)CC4)n4ncnc(N)c34)[nH]c12 [OSI-027] (partner 0.5 µM)
In short: as §1

VX-11e = compound: CC1=CN=C(N=C1C2=CNC(=C2)C(=O)N[C@H](CO)C3=CC(=CC=C3)Cl)NC4=C(C=C(C=C4)F)Cl [VX-11e]
In short: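 On vehicle-anchored 1536-well plates, lung cancer cell lines held overnight at 37 °C were pinned with five library-drug doses (not always all listed) spaced by √10. With no medium change over 5 days, they were then fixed, permeabilised and Hoechst-stained in one step and imaged at 4×. MetaXpress counted nuclei, and viability is the median across plates of treated-well over vehicle-well nuclei. Acceptance needed control CV below 25% and at least one doubling.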

Row | Cell Line | relative viability (VX-11e + Palbociclib; first compound 0.04 µM) | relative viability (VX-11e + Palbociclib; first compound 0.1265 µM) | relative viability (VX-11e + Palbociclib; first compound 0.4 µM) | relative viability (VX-11e + Palbociclib; first compound 1.265 µM) | relative viability (VX-11e + Palbociclib; first compound 4 µM) | relative viability (VX-11e + Foretinib; first compound 0.04 µM) | relative viability (VX-11e + Foretinib; first compound 0.1265 µM) | relative viability (VX-11e + Foretinib; first compound 1.265 µM) | relative viability (VX-11e + Foretinib; first compound 4 µM) | relative viability (VX-11e + OSI-027; first compound 0.04 µM) | relative viability (VX-11e + OSI-027; first compound 0.1265 µM) | relative viability (VX-11e + OSI-027; first compound 1.265 µM) | relative viability (VX-11e + OSI-027; first compound 4 µM) | relative viability (VX-11e; 0.04 µM) | relative viability (VX-11e; 0.1265 µM) | relative viability (VX-11e; 0.4 µM) | relative viability (VX-11e; 1.265 µM) | relative viability (VX-11e; 4 µM) | relative viability (VX-11e + Foretinib; first compound 0.4 µM) | relative viability (VX-11e + OSI-027; first compound 0.4 µM)
1 | NCI-H1944 | 0.323 | 0.343 | 0.338 | 0.264 | 0.205 | 0.896 | 0.851 | 0.806 | 0.505 | 0.342 | 0.343 | 0.309 | 0.259 | 0.874 | 0.869 | 0.525 | 0.78 | 0.558 | – | –
2 | NCI-H1975 | 0.543 | 0.411 | 0.169 | 0.391 | 0.17 | 1.02 | 0.949 | 1.08 | 0.46 | 0.695 | 0.499 | 0.415 | 0.162 | 0.95 | 0.885 | 0.774 | 0.816 | 0.598 | 1.01 | 0.291
3 | NCI-H1993 | – | 0.708 | 0.607 | 0.559 | 0.503 | 0.786 | 0.818 | 0.734 | 0.667 | 0.556 | 0.538 | 0.605 | 0.677 | – | 0.968 | 0.673 | 0.809 | 0.662 | 0.857 | 0.557
4 | NCI-H2009 | 0.177 | 0.171 | 0.187 | 0.158 | 0.0988 | 1.33 | 1.18 | 0.857 | 0.509 | 0.637 | 0.665 | 0.226 | 0.168 | 1.12 | 0.962 | 0.932 | 0.481 | 0.269 | 1.06 | 0.559
